≈ marks a conversion by molar mass, not a printed value. Calls of active or inactive are those of the source. The rule behind the calls is not given here.
Tests used:
[1] = test system: Haemophilus influenzae; test: Antibacterial activity against Haemophilus influenzae 2762; assay type: functional
[2] = test system: Staphylococcus aureus; test: Antibacterial activity against Staphylococcus aureus 29213; assay type: functional
[3] = test system: Staphylococcus aureus; test: Antibacterial activity against Staphylococcus aureus 33591; assay type: functional
[4] = test system: Streptococcus pneumoniae; test: Antibacterial activity against Streptococcus pneumoniae Erm 7985; assay type: functional
[5] = test system: Haemophilus influenzae; test: Antibacterial activity against Haemophilus influenzae 49247; assay type: functional
[6] = test system: Streptococcus pneumoniae; test: Antibacterial activity against Streptococcus pneumoniae Mef 6966; assay type: functional
[7] = test system: Streptococcus pneumoniae; test: Antibacterial activity against Streptococcus pneumoniae Erm 6849; assay type: functional
[8] = test system: Streptococcus pneumoniae; test: Antibacterial activity against Streptococcus pneumoniae Erm 3120; assay type: functional
[9] = Plasma half life in Sprague-Dawley rat at 15 mg/kg, po; assay type: ADME, organism-based; design: dose 15 mg/kg, route oral
[10] = test system: Streptococcus pneumoniae; test: Antibacterial activity against Streptococcus pneumoniae Erm 8947; assay type: functional
[11] = test system: Streptococcus pneumoniae; test: Antibacterial activity against Streptococcus pneumoniae Mef 3449; assay type: functional
[12] = test system: Streptococcus pneumoniae; test: Antibacterial activity against Streptococcus pneumoniae Erm 8339; assay type: functional
[13] = Lung-to-plasma AUC ratio in Sprague-Dawley rat at 5 mg/kg, iv; assay type: ADME, organism-based; design: dose 5 mg/kg, route intravenous; details: lung and plasma
[14] = test system: Rattus norvegicus; test: Plasma AUC in Sprague-Dawley rat at 5 mg/kg, iv; assay type: ADME, organism-based; design: dose 5 mg/kg, route intravenous; details: in vivo
[15] = test system: Streptococcus pneumoniae; test: Antibacterial activity against Streptococcus pneumoniae Erm 6396; assay type: functional
[16] = test system: Rattus norvegicus; test: Efficacy against Streptococcus pneumoniae Erm in Sprague-Dawley rat lung infection model at 100 mg/kg; assay type: functional, organism-based; design: dose 100 mg/kg
[17] = test system: Streptococcus pneumoniae; test: Antibacterial activity against Streptococcus pneumoniae 49619; assay type: functional
[18] = test system: Streptococcus pneumoniae; test: Antibacterial activity against Streptococcus pneumoniae Erm S 4085; assay type: functional
[19] = test system: Streptococcus pneumoniae; test: Antibacterial activity against Streptococcus pneumoniae Mef 5654; assay type: functional
[20] = test system: Streptococcus pneumoniae; test: Antibacterial activity against Streptococcus pneumoniae Erm S 4297; assay type: functional
[21] = Lung half life in Sprague-Dawley rat at 15 mg/kg, po; assay type: ADME, organism-based; design: dose 15 mg/kg, route oral
[22] = test system: Staphylococcus epidermidis; test: Antibacterial activity against Staphylococcus epidermidis 14990; assay type: functional
[23] = test system: Streptococcus pneumoniae; test: Antibacterial activity against Streptococcus pneumoniae Mef 1556; assay type: functional
[24] = test system: Streptococcus pneumoniae; test: Antibacterial activity against Streptococcus pneumoniae Erm 5399; assay type: functional
[25] = test system: Rattus norvegicus; test: Efficacy against Streptococcus pneumoniae Mef in Sprague-Dawley rat lung infection model at 50 mg/kg; assay type: functional, organism-based; design: dose 50 mg/kg
[26] = test system: Streptococcus pneumoniae; test: Antibacterial activity against Streptococcus pneumoniae Mef 983; assay type: functional
[27] = Plasma half life in Sprague-Dawley rat at 5 mg/kg, iv; assay type: ADME, organism-based; design: dose 5 mg/kg, route intravenous
[28] = test system: Streptococcus pneumoniae; test: Antibacterial activity against Streptococcus pneumoniae Mef S 3427; assay type: functional
[29] = test system: Streptococcus pneumoniae; test: Antibacterial activity against Streptococcus pneumoniae Erm 8257; assay type: functional
[30] = Oral bioavailability in Sprague-Dawley rat at 100 mg/kg, po; assay type: ADME, organism-based; details: in vivo
[31] = test system: Streptococcus pneumoniae; test: Antibacterial activity against Streptococcus pneumoniae Erm 4290; assay type: functional
[32] = test system: Streptococcus pneumoniae; test: Antibacterial activity against Streptococcus pneumoniae Erm 4589; assay type: functional
[33] = test system: Streptococcus pneumoniae; test: Antibacterial activity against Streptococcus pneumoniae Erm 867; assay type: functional
[34] = test system: Streptococcus pneumoniae; test: Antibacterial activity against Streptococcus pneumoniae Mef 1566; assay type: functional
[35] = test system: Streptococcus pneumoniae; test: Antibacterial activity against Streptococcus pneumoniae Erm 2218; assay type: functional
[36] = test system: Streptococcus pneumoniae; test: Antibacterial activity against Streptococcus pneumoniae Erm 10279; assay type: functional
[37] = test system: Streptococcus pneumoniae; test: Antibacterial activity against Streptococcus pneumoniae Mef 9959; assay type: functional
[38] = test system: Streptococcus pneumoniae; test: Antibacterial activity against Streptococcus pneumoniae Mef 4331; assay type: functional
[39] = test system: Streptococcus pneumoniae; test: Antibacterial activity against Streptococcus pneumoniae Mef 2880; assay type: functional
[40] = test system: Streptococcus pneumoniae; test: Antibacterial activity against Streptococcus pneumoniae Mef S 3435; assay type: functional; details: Streptococcus pneumoniae; read-out: MIC
[41] = test system: Streptococcus pneumoniae; test: Antibacterial activity against Streptococcus pneumoniae Mef 953; assay type: functional
[42] = Volume of distribution in Sprague-Dawley rat at 5 mg/kg, iv and 15 mg/kg, po; assay type: ADME, organism-based; details: in vivo, read-out: Vdss
[43] = test system: Enterococcus faecalis; test: Antibacterial activity against Enterococcus faecalis 29212; assay type: functional
[44] = test system: Streptococcus pneumoniae; test: Antibacterial activity against Streptococcus pneumoniae Mef 3855; assay type: functional
[45] = test system: Rattus norvegicus; test: Efficacy against Haemophilus influenzae in Sprague-Dawley rat lung infection model at 100 mg/kg; assay type: functional, organism-based; design: dose 100 mg/kg
[46] = test system: Streptococcus pneumoniae; test: Antibacterial activity against Streptococcus pneumoniae Erm 5415; assay type: functional
[47] = test system: Streptococcus pneumoniae; test: Antibacterial activity against Streptococcus pneumoniae Erm 5554; assay type: functional
[48] = Oral bioavailability in Sprague-Dawley rat at 15 mg/kg, po; assay type: ADME, organism-based; details: in vivo
[49] = test system: Streptococcus pneumoniae; test: Antibacterial activity against Streptococcus pneumoniae Mef 4126; assay type: functional
[50] = test system: Streptococcus pneumoniae; test: Antibacterial activity against Streptococcus pneumoniae Erm 8919; assay type: functional
[51] = test system: Streptococcus pneumoniae; test: Antibacterial activity against Streptococcus pneumoniae Mef 1790; assay type: functional
[52] = test system: Streptococcus pneumoniae; test: Antibacterial activity against Streptococcus pneumoniae Mef 9142; assay type: functional
[53] = test system: Streptococcus pneumoniae; test: Antibacterial activity against Streptococcus pneumoniae Erm 5354; assay type: functional
[54] = test system: Streptococcus pneumoniae; test: Antibacterial activity against Streptococcus pneumoniae 280-962; assay type: functional
[55] = test system: Streptococcus pneumoniae; test: Antibacterial activity against Streptococcus pneumoniae Erm 5590; assay type: functional
[56] = test system: Enterococcus faecalis; test: Antibacterial activity against Enterococcus faecalis bc11148-2; assay type: functional
[57] = test system: Streptococcus pneumoniae; test: Antibacterial activity against Streptococcus pneumoniae Mef 5649; assay type: functional
[58] = test system: Streptococcus pneumoniae; test: Antibacterial activity against Streptococcus pneumoniae Mef 2382; assay type: functional
[59] = test system: Streptococcus pneumoniae; test: Antibacterial activity against Streptococcus pneumoniae 297-749; assay type: functional
[60] = test system: Staphylococcus epidermidis; test: Antibacterial activity against Staphylococcus epidermidis f50654; assay type: functional
[61] = test system: Streptococcus pneumoniae; test: Antibacterial activity against Streptococcus pneumoniae Mef 41; assay type: functional
[62] = test system: Streptococcus pneumoniae; test: Antibacterial activity against Streptococcus pneumoniae Erm 6388; assay type: functional
[63] = test system: Streptococcus pyogenes; test: Antibacterial activity against Streptococcus pyogenes 8668; assay type: functional
[64] = test system: Streptococcus pneumoniae; test: Antibacterial activity against Streptococcus pneumoniae Mef 10095; assay type: functional

## C=C[C@]12OC(=O)N(CCCCn3cnc(-c4ccc(Cl)nc4)c3)[C@@H]1[C@@H](C)C(=O)[C@H](C)C[C@@](C)(OC)[C@H](O[C@@H]1O[C@H](C)C[C@H](N(C)C)[C@H]1O)[C@@H](C)C(=O)[C@@H](C)C(=O)O[C@@H]2CC
[1]
  MIC: 0.78 µg/mL (≈ 0.909 µM)
[2]
  MIC: ≤ 0.05 µg/mL
[3]
  MIC: > 50 µg/mL
[4]
  MIC: ≤ 0.013 µg/mL
[5]
  MIC: 3.13 µg/mL (≈ 3.65 µM)
[6]
  MIC: ≤ 0.05 µg/mL
[7]
  MIC: 0.05 µg/mL (≈ 0.0582 µM)
[8]
  MIC: 0.05 µg/mL (≈ 0.0582 µM)
[9]
  half-life: 1.7 h
[10]
  MIC: 0.05 µg/mL (≈ 0.0582 µM)
[11]
  MIC: ≤ 0.05 µg/mL
[12]
  MIC: 0.2 µg/mL (≈ 0.233 µM)
[13]
  Kp: 94
[14]
  AUC: 2300 ng·h/mL
[15]
  MIC: 0.05 µg/mL (≈ 0.0582 µM)
[16]
  Activity: Active
[17]
  MIC: ≤ 0.05 µg/mL
[18]
  MIC: ≤ 0.013 µg/mL
[19]
  MIC: 0.1 µg/mL (≈ 0.116 µM)
[20]
  MIC: 0.025 µg/mL (≈ 0.0291 µM)
[21]
  half-life: 1.4 h
[22]
  MIC: ≤ 0.05 µg/mL
[23]
  MIC: ≤ 0.05 µg/mL
[24]
  MIC: 0.025 µg/mL (≈ 0.0291 µM)
[25]
  Activity: Active
[26]
  MIC: 0.1 µg/mL (≈ 0.116 µM)
[27]
  half-life: 1.3 h
[28]
  MIC: ≤ 0.05 µg/mL
[29]
  MIC: ≤ 0.013 µg/mL
[30]
  bioavailability: 91%
[31]
  MIC: 0.025 µg/mL (≈ 0.0291 µM)
[32]
  MIC: 0.025 µg/mL (≈ 0.0291 µM)
[33]
  MIC: 0.025 µg/mL (≈ 0.0291 µM)
[34]
  MIC: 0.1 µg/mL (≈ 0.116 µM)
[35]
  MIC: 0.025 µg/mL (≈ 0.0291 µM)
[36]
  MIC: 0.025 µg/mL (≈ 0.0291 µM)
[37]
  MIC: ≤ 0.05 µg/mL
[38]
  MIC: 0.1 µg/mL (≈ 0.116 µM)
[39]
  MIC: ≤ 0.05 µg/mL
[40]
  MIC: ≤ 0.05 µg/mL
[41]
  MIC: ≤ 0.05 µg/mL
[42]
  Vd: 12 L/kg
[43]
  MIC: ≤ 0.05 µg/mL
[44]
  MIC: ≤ 0.05 µg/mL
[45]
  Activity: Active
[46]
  MIC: 0.025 µg/mL (≈ 0.0291 µM)
[47]
  MIC: 0.1 µg/mL (≈ 0.116 µM)
[48]
  bioavailability: 26%
[49]
  MIC: ≤ 0.05 µg/mL
[50]
  MIC: 0.025 µg/mL (≈ 0.0291 µM)
[51]
  MIC: 0.1 µg/mL (≈ 0.116 µM)
[52]
  MIC: 0.1 µg/mL (≈ 0.116 µM)
[53]
  MIC: 0.025 µg/mL (≈ 0.0291 µM)
[54]
  MIC: ≤ 0.05 µg/mL
[55]
  MIC: 0.025 µg/mL (≈ 0.0291 µM)
[56]
  MIC: 0.1 µg/mL (≈ 0.116 µM)
[57]
  MIC: ≤ 0.05 µg/mL
[58]
  MIC: 0.1 µg/mL (≈ 0.116 µM)
[59]
  MIC: ≤ 0.05 µg/mL
[60]
  MIC: ≤ 0.05 µg/mL
[61]
  MIC: 0.1 µg/mL (≈ 0.116 µM)
[62]
  MIC: 0.4 µg/mL (≈ 0.466 µM)
[63]
  MIC: ≤ 0.05 µg/mL
[64]
  MIC: ≤ 0.05 µg/mL

## C=C[C@]12OC(=O)N(CCCCn3ccc4ncccc43)[C@@H]1[C@@H](C)C(=O)[C@H](C)C[C@@](C)(OC)[C@H](O[C@@H]1O[C@H](C)C[C@H](N(C)C)[C@H]1O)[C@@H](C)C(=O)[C@@H](C)C(=O)O[C@@H]2CC
[1]
  MIC: 1.56 µg/mL (≈ 1.96 µM)
[2]
  MIC: 0.1 µg/mL (≈ 0.125 µM)
[3]
  MIC: > 50 µg/mL
[5]
  MIC: 6.25 µg/mL (≈ 7.84 µM)
[7]
  MIC: 6.25 µg/mL (≈ 7.84 µM)
[17]
  MIC: ≤ 0.05 µg/mL
[19]
  MIC: 0.4 µg/mL (≈ 0.502 µM)
[22]
  MIC: 0.1 µg/mL (≈ 0.125 µM)
[28]
  MIC: 0.1 µg/mL (≈ 0.125 µM)
[43]
  MIC: 0.1 µg/mL (≈ 0.125 µM)
[54]
  MIC: ≤ 0.05 µg/mL
[56]
  MIC: 3.13 µg/mL (≈ 3.93 µM)
[59]
  MIC: ≤ 0.05 µg/mL
[60]
  MIC: 0.1 µg/mL (≈ 0.125 µM)
[63]
  MIC: ≤ 0.05 µg/mL

Source: ChEMBL document CHEMBL1138190, “Synthesis and antibacterial activity of novel C12 vinyl ketolides” (J Med Chem, 2006)
